Each structure is given as a SMILES string.

Assay [1] deals with Mycobacterium tuberculosis H37Rv. Briefly: Inhibition of Mycobacterium tuberculosis H37Rv Chorismate mutase at 30 uM relative to control.
The subject of assay [2] is Plasmodium berghei. Briefly: Antimalarial activity against liver stage of Plasmodium berghei ANKA harboring luciferase gene infected in human HepG2 cells pretreated for 1 hr followed by parasite infection measured after […] by Bright-Glo luminescence assay. Type of assay: functional, cell-based.
Assay [3] can be described thus: Inhibition of Mycobacterium tuberculosis H37Rv Chorismate mutase.

In the case of `O=C1NC2(CCCCCC2)Nc2ccccc21`, the inhibition in assay [1] lay in the range of 30 to 35%.
With `CCN(CC)CCN1C(=O)c2ccccc2NC1c1ccc(Cl)cc1` (centres undefined), in assay [2], the EC50 was 1400 nM.
Molecule `O=C1NC2(Cc3ccccc3C2)Nc2ccc(I)cc21` came in with an inhibition in assay [1] of 30 to 35%.
On to `COc1cc(CCNc2c([N+](=O)[O-])cc(C(=O)O)cc2S(N)(=O)=O)cc(OC)c1`, for which the IC50 in assay [3] is under 10000 nM.

One may read the inhibition as the drop in the measured response relative to a control, in per cent. Lower therefore signals a response near the control. The term EC50 denotes the concentration giving half of the maximal effect. A word on the IC50: it is the concentration needed to halve the response being measured.

Values taken from ChEMBL document CHEMBL4038261, “Synthetic strategy with representation on mechanistic pathway for the therapeutic applications of dihydroquinazolinones” (Eur J Med Chem, 2016).
